Assay results from US20080293785A1, “SUBSTITUTED BENZOTHIAZOLE KINASE INHIBITORS” (priority 2006, published 2008).
pIC50: −log10 of the molar value. Where two headings read alike, the source gives them in different places.

What was measured:
CDK1:Cyclin-B = biological target: T1, CDK1:Cyclin-B (Homo sapiens, UniProt P06493); assay: CDK1 Screening Assay; format: biochemical; conditions: 10 μM ATP, biotinylated histone-H1 peptide substrate, 33P-γ-ATP FlashPlate; read-out: Kinase IC50 CDK1
T1 construct: purchased New England Biolabs, Beverly, Mass; 6020; host or cells: insect cells
Procedure: (§1) A kinase reaction mixture was prepared containing 50 mM Tris.HCl pH=8, 10 mM MgCl2, 0.1 mM Na3PO4, 1 mM DTT, 10 μM ATP, 0.025 μM biotinylated histone-H1 peptide substrate and 0.2 μCuries per well ^33P-γ-ATP (2000-3000 Ci/mmol). 70 μL of the kinase reaction mixture was dispensed into the well of a streptavidin coated FlashPlate™ (Cat. # SMP103, NEN, Boston, Mass.). Then 1 μL of test compound stock in 100% DMSO was added to the wells resulting in a final concentration of 1% DMSO in the reaction well with a 100 μL final reaction well volume.
(§2) The CDK1:Cyclin-B protein was diluted in 50 mM Tris.HCl pH=8.0, 0.1% BSA at a concentration of 1 ng per μL and 30 μL (30 ng enzyme per test well) was added to each well to initiate the reaction. The reaction was incubated for one hour at 30° C. At the end of the one hour incubation, the reaction was terminated by aspirating the mixture from the plate and washing the wells twice with PBS containing 100 mM EDTA. The histone-H1 biotinylated peptide substrate became immobilized on the Flashplate™ and the incorporation of ^33P-γ-ATP was measured by reading the plate on a scintillation counter. Inhibition of the enzymatic activity of CDK1 was measured by observing a reduced amount of ^33P-γ-ATP incorporated into the immobilized peptide.
The CDK1 kinase used was isolated from insect cells expressing both the human CDK1 catalytic subunit and its positive regulatory subunit cyclin B (New England Biolabs, Beverly, Mass., Cat. # 6020).
(§3) An IC50 listed as >0.1, >1, >10 or >100 means no observed 50% inhibition at the indicated test concentration. […] ND means the compound was not tested in the assay specified.

[1] = system: HeLa cervical adenocarcinoma; assay: Inhibition of cell proliferation (14C-thymidine incorporation), HeLa; format: cell-based
Procedure: (§4) The ability of a test compound to inhibit the proliferation of cell growth was determined by measuring incorporation of ^14C-labelled thymidine into newly synthesized DNA within the cells. This method was used on American Type Culture Collection (ATCC, Virginia) cell lines derived from carcinomas originating from several tissues such as HeLa cervical adenocarcinoma (ATCC Cat. #CCL-2), A375 malignant melanoma (ATCC Cat. #CRL-1619) and HCT-116 colon carcinoma (ATCC Cat. #CCL-247).
(§5) The carcinoma cells were trypsinized and counted. The cells (3000-8000 count) were added to each well of a 96-well CytoStar tissue culture treated scintillating microplate (Amersham #RPNQ0160) in complete medium (100 μL) and the plate was incubated in complete medium for 24 hrs at 37° C. in an […] containing 5% CO2.
Test compound (1 μL) in 100% DMSO was added to the plate test-wells with DMSO only added to control-wells. The plate is incubated in complete medium for a second 24 hr period at 37° C. in an atmosphere containing 5% CO2.
An aliquot of a solution of Methyl ^14C-thymidine (56 mCi/mmol) (NEN #NEC568 or Amersham #CFA532) in complete medium (20 uL to provide […]) was also added to each well and the plate was incubated for a third 24 hr period at 37° C. in an atmosphere containing 5% CO2.
The plate contents were discarded and the plate was washed twice with PBS (200 μL), then PBS (200 μL) was added to each well. The plate was sealed and the degree of methyl ^14C-thymidine incorporation is quantified on a Packard Top Count.
An IC50 value shown as >10 or >100 means that 50% inhibition was not observed at the highest concentration.

VEGF-R2 kinase domain = VEGF-R2 kinase domain (Rattus norvegicus, UniProt O08775); assay: VEGF-R2 Screening Assay; format: biochemical; conditions: 10 μM ATP, biotinylated PLC1 peptide substrate, 33P-γ-ATP FlashPlate; read-out: Kinase IC50 VEGFR
Procedure: as §1, with “biotinylated” for “biotinylated histone-H1”, “0.8” for “0.2”
The soluble rat tyrosine kinase containing an N-terminal 6×HIS tag was diluted in 50 mM Tris.HCl pH=8.0, 0.1% BSA at a concentration of 5 ng per μL and 30 μL (150 ng enzyme per test well) was added to each well to initiate the reaction. The reaction was incubated for one hour at 30° C. At the end of the one hour incubation, the reaction was terminated by aspirating the reaction mixture from the plate and washing the wells twice with PBS containing 100 mM EDTA. The PLC1 biotinylated peptide substrate became immobilized on the Flashplate™ and the incorporation of ^33P-γ-ATP was measured by reading the plate on a scintillation counter. Inhibition of the enzymatic activity of the VEGF-R was measured by observing a reduced amount of ^33P-γ-ATP incorporated into the immobilized peptide.
The VEGF-R kinase assay was carried out using the CDK kinase assay procedure except that the enzyme was replaced with the VEGF-R2 fusion protein containing a polyhistidine tag at the N-terminus followed by amino acids 786-1343 of the rat VEGF-R2 kinase domain (GenBank Accession #U93306).
as §3

CDK2:Cyclin A = biological target: T2, CDK2:Cyclin A (Homo sapiens, UniProt P24941); assay: CDK2 Screening Assay; format: biochemical; conditions: 10 μM ATP, biotinylated histone-H1 peptide substrate, 33P-γ-ATP FlashPlate; read-out: Kinase IC50 CDK2
T2 construct: purchased Upstate Biotech, Lake Placid, N.Y
Procedure: as §1
as §2, with “CDK2:Cyclin A” for “CDK1:Cyclin-B”, “CDK2” for “CDK1”
The CDK2 kinase used was complexed with cyclin A and is commercially available (Upstate Biotech, Lake Placid, N.Y.).
as §3

A375 malignant melanoma = assay: Inhibition of cell proliferation (14C-thymidine incorporation), A375; format: cell-based; conditions: Homo sapiens, A-375; A375, 14C-thymidine incorporation
Procedure: as §4, §5
(§6) Test compound (1 μL) in 100% DMSO was added to the plate test-wells with DMSO only added to control-wells. The plate is incubated in complete medium for a second 24 hr period at 37° C. in an atmosphere containing 5% CO2. […]
(§7) The plate contents were discarded and the plate was washed twice with PBS (200 μL), then PBS (200 μL) was added to each well. The plate was sealed and the degree of methyl ^14C-thymidine incorporation is quantified on a Packard Top Count. […]

HCT-116 colon carcinoma = assay: Inhibition of cell proliferation (14C-thymidine incorporation), HCT116; format: cell-based; conditions: Homo sapiens, HCT116, 14C-thymidine incorporation
Procedure: as §4, §5, §6, §7

Chain of VEGF-R2 kinase domain (O08775 786-1343): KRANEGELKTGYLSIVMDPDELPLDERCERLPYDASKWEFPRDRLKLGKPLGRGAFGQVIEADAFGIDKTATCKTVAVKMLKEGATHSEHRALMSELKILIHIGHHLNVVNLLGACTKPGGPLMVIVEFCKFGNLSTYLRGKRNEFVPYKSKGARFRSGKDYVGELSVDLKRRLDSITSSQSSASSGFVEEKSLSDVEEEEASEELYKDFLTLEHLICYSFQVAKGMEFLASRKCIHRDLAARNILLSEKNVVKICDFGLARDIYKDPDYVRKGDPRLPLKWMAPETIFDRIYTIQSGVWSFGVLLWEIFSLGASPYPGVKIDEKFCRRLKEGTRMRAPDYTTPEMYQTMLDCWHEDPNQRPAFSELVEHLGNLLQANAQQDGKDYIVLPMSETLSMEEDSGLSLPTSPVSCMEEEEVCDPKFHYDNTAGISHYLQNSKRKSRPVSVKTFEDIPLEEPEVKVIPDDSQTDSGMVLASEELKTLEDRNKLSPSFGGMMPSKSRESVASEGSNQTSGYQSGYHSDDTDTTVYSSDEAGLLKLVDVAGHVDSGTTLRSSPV
T1 sequence (P06493 whole entry): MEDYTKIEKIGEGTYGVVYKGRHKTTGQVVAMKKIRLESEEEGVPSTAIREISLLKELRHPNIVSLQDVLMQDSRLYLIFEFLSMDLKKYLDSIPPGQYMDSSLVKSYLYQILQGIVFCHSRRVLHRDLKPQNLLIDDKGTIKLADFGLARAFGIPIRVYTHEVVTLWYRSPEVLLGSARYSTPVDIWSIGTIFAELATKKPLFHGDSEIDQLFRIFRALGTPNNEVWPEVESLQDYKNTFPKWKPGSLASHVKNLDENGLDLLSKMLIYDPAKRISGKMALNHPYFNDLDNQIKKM
T1 sequence (P14635 whole entry partner): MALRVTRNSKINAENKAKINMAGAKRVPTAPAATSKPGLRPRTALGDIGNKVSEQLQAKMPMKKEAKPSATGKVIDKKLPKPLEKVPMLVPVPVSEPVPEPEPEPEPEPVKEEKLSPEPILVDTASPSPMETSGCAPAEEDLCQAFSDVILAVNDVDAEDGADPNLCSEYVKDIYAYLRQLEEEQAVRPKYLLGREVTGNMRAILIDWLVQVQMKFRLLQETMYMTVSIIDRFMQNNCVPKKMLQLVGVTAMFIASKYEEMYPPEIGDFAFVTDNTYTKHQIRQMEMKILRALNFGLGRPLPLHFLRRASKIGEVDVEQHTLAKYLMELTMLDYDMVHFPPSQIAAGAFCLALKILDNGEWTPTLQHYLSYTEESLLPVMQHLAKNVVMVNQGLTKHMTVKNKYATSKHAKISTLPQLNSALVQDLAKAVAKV

pIC50 (CDK1:Cyclin-B)	pIC50 ([1]; Homo sapiens)	pIC50 (VEGF-R2 kinase domain)	pIC50 (CDK2:Cyclin A)	pIC50 (A375 malignant melanoma)	pIC50 (HCT-116 colon carcinoma)	Compound	pIC50 [1]
< 4.00	< 5.00	< 4.00	< 4.00			O=C(Nc1ccccc1)Nc1cccc2sc(Nc3ccccc3)nc12 [Cpd 5, 1-phenyl-3-(2-phenylamino-benzothiazol-4-yl)-urea]	
< 4.00	4.14	< 4.00	5.24			O=C(Nc1c(F)cccc1F)Nc1cccc2sc(Nc3ccccc3)nc12 [Cpd 6, 1-(2,6-difluoro-phenyl)-3-(2-phenylamino-benzothiazol-4-yl)-urea]	
< 4.00	< 4.00	< 4.00	< 4.00			O=C(Nc1ccc2nc(Nc3ccccc3)sc2c1)Nc1c(F)cccc1F [Cpd 2, 1-(2,6-difluoro-phenyl)-3-(2-phenylamino-benzothiazol-6-yl)-urea]	
< 4.00	< 5.00	< 4.00	< 4.00			O=C(Nc1ccccc1)Nc1cccc2nc(Nc3ccccc3)sc12 [Cpd 3, 1-phenyl-3-(2-phenylamino-benzothiazol-7-yl)-urea]	
5.81	4.69	5.34	6.81	4.98	5.30	Cc1ccc(F)c(C(=O)Nc2cccc3sc(Nc4ccccc4)nc23)c1F [Cpd 48, 2,6-difluoro-3-methyl-N-(2-phenylamino-benzothiazol-4-yl)-benzamide]	

More lines, now with the values behind:

Compound	pIC50 (CDK1:Cyclin-B)	pIC50 ([1]; Homo sapiens)	pIC50 (VEGF-R2 kinase domain)	pIC50 (CDK2:Cyclin A)	pIC50 (A375 malignant melanoma)	pIC50 (HCT-116 colon carcinoma)	pIC50 [1]
1-(2,6-difluoro-phenyl)-3-(2-phenylamino-benzothiazol-7-yl)-urea [Cpd 1]	< 4.00		~4.00	< 4.00			< 5.00
O=C(Nc1ccc(Cl)c(Cl)c1)Nc1cccc2nc(Nc3ccccc3)sc12 [Cpd 4, 1-(3,4-dichloro-phenyl)-3-(2-phenylamino-benzothiazol-7-yl)-urea]	< 4.00	< 5.00	< 4.00	< 4.00			
O=C(Nc1cccc2sc(Nc3ccccc3)nc12)c1ccc(N2CCOCC2)nc1 [Cpd 21, 6-morpholin-4-yl-N-(2-phenylamino-benzothiazol-4-yl)-nicotinamide]	4.83		< 4.00	5.81			
